Data on three compounds can be found in paper PMC6308799, “In vitro and in vivo Inhibitory Activity of NADPH Against the AmpC BER Class C β-Lactamase” (Frontiers in Cellular and Infection Microbiology, 2018).

SMILES strings stand for the structures.

Assay [1] deals with T1, AmpC EC2 (Escherichia coli, UniProt A7TUE6). In words: nitrocefin hydrolysis initial velocity at […] NADPH. The class given is biochemical.
The target in assay [2] is T1, AmpC EC2. In words: ITC (KD […]); also steady-state nitrocefin kinetics (competitive, Ki […]). The class given is binding.
The target in the next assay is T2, CMY-2 (Klebsiella pneumoniae, UniProt Q48434).
T2 construct: gene blaCMY-2
In words: nitrocefin hydrolysis initial velocity at […] NADPH. The class given is biochemical.

The target of another assay is T3, CMY-10 (Klebsiella aerogenes, UniProt Q99QC1).
T3 construct: gene blaCMY-10
In words: nitrocefin hydrolysis initial velocity at […] NADPH. The class given is biochemical.

Assay [3] has as its target T1, AmpC EC2. In words: nitrocefin hydrolysis initial velocity at […] ([…] inhibition range for the set). The class given is biochemical.

`NC(=O)C1=CN([C@@H]2O[C@H](COP(=O)(O)OP(=O)(O)OC[C@H]3O[C@@H](n4cnc5c(N)ncnc54)[C@H](OP(=O)(O)O)[C@@H]3O)[C@@H](O)[C@H]2O)C=CC1` [NADPH]: the “nitrocefin hydrolysis initial velocity at 2 mM NADPH” value was “NADPH also reduced the initial velocity of nitrocefin hydrolysis catalyzed by other class C β-lactamases including ACC-1, AmpC EC2, CMY-2, and CMY-10” at AmpC EC2 [1]; “NADPH also reduced the initial velocity of nitrocefin hydrolysis catalyzed by other class C β-lactamases including ACC-1, AmpC EC2, CMY-2, and CMY-10” at CMY-2; “NADPH also reduced the initial velocity of nitrocefin hydrolysis catalyzed by other class C β-lactamases including ACC-1, AmpC EC2, CMY-2, and CMY-10” on CMY-10. On AmpC EC2 [2], the Kd (in general, a measure of binding affinity in units of concentration) was 40 µM.
For `NC(=O)c1ccc[n+]([C@@H]2O[C@H](COP(=O)([O-])OP(=O)(O)OC[C@H]3O[C@@H](n4cnc5c(N)ncnc54)[C@H](O)[C@@H]3O)[C@@H](O)[C@H]2O)c1` [NAD], the “nitrocefin hydrolysis initial velocity at 2 mM (~15-55% inhibition range for the)” value at AmpC EC2 [3] was “all tested adenosine dinucleotides including FAD, NAD, NADP, and NADPH reduced the initial velocity of nitrocefin hydrolysis catalyzed by AmpC BER”.
Regarding `Cc1cc2nc3c(=O)[nH]c(=O)nc-3n(C[C@H](O)[C@H](O)[C@H](O)COP(=O)(O)OP(=O)(O)OC[C@H]3O[C@@H](n4cnc5c(N)ncnc54)[C@H](O)[C@@H]3O)c2cc1C` [FAD], on AmpC EC2 [3], the “nitrocefin hydrolysis initial velocity at 2 mM (~15-55% inhibition range for the)” value is “all tested adenosine dinucleotides including FAD, NAD, NADP, and NADPH reduced the initial velocity of nitrocefin hydrolysis catalyzed by AmpC BER”.
